The conditions of data set [1]: human.
The conditions of data set [2]: human. This is another data set of the same source.
The conditions of data set [3]: human. This is another data set of the same source.
Data set [4] in a line: Highest frequency of acute liver toxicity observed during clinical trials, expressed as a percentage. [column '% AIGUE' in source]. The following applies: human.
The conditions of data set [5]: human, serum.
The conditions of data set [6]: human. The source holds these as a separate data set.
A short description of data set [7]: Times to onset, minimal and maximal, observed in the indexed observations. [column 'DELAI' in source]. The settings on record: human.
The conditions of data set [8]: human. The source holds these as a separate data set.
The conditions of data set [9]: human. The source holds these as a separate data set.
The conditions of data set [10]: human. The source holds these as a separate data set.
For data set [11] the following is noted: human, serum. This is another data set of the same source.
The conditions of data set [12]: human. This is another data set of the same source.
Data set [13] is described as follows: Highest frequency of moderate liver toxicity observed during clinical trials, expressed as a percentage. [column '% BIOL' in source]. The following applies: human.
The conditions of data set [14]: human, serum, 4383 h.
The conditions of data set [15]: human. This is another data set of the same source.
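For Hepatotoxicity (association with vascular disease) in this document: count of indexed literature references reporting vascular liver injury in humans, e.g. peliosis hepatitis, hepatic veno-occlusive disease or Budd-Chiari syndrome.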
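For Hepatotoxicity (benign tumour) in this document: value is a count of indexed literature references citing a benign tumour confirmed by histopathology.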
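For Hepatotoxicity (choleostasis) in this document: human cholestatic liver injury, shown by histopathology or by peak ALT or AST elevation over alkaline phosphatase ratio below 2, value counts indexed literature reports.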
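For Hepatotoxicity (chronic liver disease) in this document: chronic liver injury confirmed by histopathology or persistently raised serum aminotransferase activity beyond 6 months, value given as the count of indexed literature references.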
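For Hepatotoxicity (cirrhosis) in this document: value is a count of indexed literature references reporting cirrhosis confirmed by histopathology.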
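For Hepatotoxicity (cytolytic) in this document: human cytolytic liver injury, shown by histopathology or by a ratio above 5 of peak ALT or AST elevation to alkaline phosphatase elevation, value counts indexed references.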
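For Hepatotoxicity (granulomatous hepatitis) in this document: value is a count of indexed literature references reporting granulomatous liver disease confirmed by histopathology.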
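For Hepatotoxicity (malignant tumour) in this document: malignant tumour confirmed by histopathology, value gives the count of indexed literature references reporting it.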
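For Hepatotoxicity (severe hepatitis) in this document: human clinical data: severe hepatitis, meaning potentially life-threatening liver failure or clinically observed cases, the value counts how many indexed literature references report it.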
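For Hepatotoxicity (steatosis) in this document: steatosis confirmed by histopathology, value is the count of indexed references.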

Take `CC(C)(S)C(=O)N[C@@H](CS)C(=O)O` [BUCILLAMINE]: the “Hepatotoxicity (severe hepatitis)” value in data set [1] is listed as 0. The “Hepatotoxicity (steatosis)” value in data set [2] came to 0. Moreover, the “Hepatotoxicity (malignant tumour)” value in data set [3] is given as 0. The “Hepatotoxicity (acute)” value in data set [4] was determined as 0%; in data set [5], 0. The “Hepatotoxicity (cytolytic)” value in [6] stood at 0. The “Hepatotoxicity (time to onset)” value in [7] is 2 weeks. In addition, in data set [8], the “Hepatotoxicity (association with vascular disease)” value is 0. The “Hepatotoxicity (cirrhosis)” value in data set [9] was 0. Moreover, the “Hepatotoxicity (choleostasis)” value in [10] was determined as 0. Further, the “Hepatotoxicity (moderate)” value in data set [11] turned out to be 5; in [13], 9.4%. For the same compound, the “Hepatotoxicity (benign tumour)” value in data set [12] was found to be 0. Further, the “Hepatotoxicity (chronic liver disease)” value in data set [14] came to 0. Moreover, the “Hepatotoxicity (granulomatous hepatitis)” value in data set [15] was found to be 0.

Consider `COc1cc(C(=O)NCc2ccc(OCCN(C)C)cc2)cc(OC)c1OC` [TRIMETHOBENZAMIDE], for which the “Hepatotoxicity (severe hepatitis)” value in [1] was determined as 0. The “Hepatotoxicity (steatosis)” value in [2] is reported as 0. Besides, the “Hepatotoxicity (malignant tumour)” value in data set [3] turned out to be 0. Further, the “Hepatotoxicity (acute)” value in [4] came out at 0%; in data set [5], 2. Also, the “Hepatotoxicity (cytolytic)” value in data set [6] is 2. In data set [7], the “Hepatotoxicity (time to onset)” value turned out to be 5 days. The “Hepatotoxicity (association with vascular disease)” value in [8] was determined as 0. In addition, the “Hepatotoxicity (cirrhosis)” value in data set [9] is reported as 0. Besides, in [10], the “Hepatotoxicity (choleostasis)” value was 1. Further, the “Hepatotoxicity (moderate)” value in data set [11] came to 0; in data set [13] it was 0%. Besides, the “Hepatotoxicity (benign tumour)” value in [12] worked out at 0. Besides, in [14], the “Hepatotoxicity (chronic liver disease)” value was found to be 0. Moreover, the “Hepatotoxicity (granulomatous hepatitis)” value in data set [15] stood at 0.

Turning to `CCN1CCCC1CNC(=O)c1cc(S(=O)(=O)CC)c(N)cc1OC` (stereo not given) [AMISULPRIDE], the “Hepatotoxicity (severe hepatitis)” value in data set [1] was 0. Moreover, in [2], the “Hepatotoxicity (steatosis)” value turned out to be 0. Further, the “Hepatotoxicity (malignant tumour)” value in [3] came to 0. Also, the “Hepatotoxicity (acute)” value in [4] is 0%; in [5], 0. In [6], the “Hepatotoxicity (cytolytic)” value was found to be 0. In addition, the “Hepatotoxicity (time to onset)” value in data set [7] came to 2 weeks. Besides, in [8], the “Hepatotoxicity (association with vascular disease)” value is 0. The “Hepatotoxicity (cirrhosis)” value in data set [9] was 0. Also, the “Hepatotoxicity (choleostasis)” value in data set [10] is on record as 0. Further, the “Hepatotoxicity (moderate)” value in [11] is on record as 1; in data set [13], 0%. Further, the “Hepatotoxicity (benign tumour)” value in data set [12] is reported as 0. For the same compound, in data set [14], the “Hepatotoxicity (chronic liver disease)” value is 0. Also, in [15], the “Hepatotoxicity (granulomatous hepatitis)” value turned out to be 0.

As for `CCS(=O)(=O)CCn1c([N+](=O)[O-])cnc1C` [TINIDAZOLE], the “Hepatotoxicity (severe hepatitis)” value in data set [1] was 0. The “Hepatotoxicity (steatosis)” value in data set [2] is on record as 0. Also, the “Hepatotoxicity (malignant tumour)” value in data set [3] is 0. The entries for the “Hepatotoxicity (acute)” value in data set [4] and in data set [5] were 0% and 1, respectively. In addition, in [6], the “Hepatotoxicity (cytolytic)” value was determined as 1. Also, in [7], the “Hepatotoxicity (time to onset)” value was 1 week. Further, in [8], the “Hepatotoxicity (association with vascular disease)” value was found to be 0. The “Hepatotoxicity (cirrhosis)” value in data set [9] is on record as 0. Further, in data set [10], the “Hepatotoxicity (choleostasis)” value worked out at 0. Further, the “Hepatotoxicity (moderate)” value in data set [11] is listed as 1; in data set [13], 0%. In addition, the “Hepatotoxicity (benign tumour)” value in data set [12] is recorded as 0. Also, in [14], the “Hepatotoxicity (chronic liver disease)” value came to 0. For the same compound, the “Hepatotoxicity (granulomatous hepatitis)” value in [15] came out at 0.

With `N[C@@H]1[C@H]2CN(c3nc4c(cc3F)c(=O)c(C(=O)O)cn4-c3ccc(F)cc3F)C[C@@H]12` [TROVAFLOXACIN], the “Hepatotoxicity (severe hepatitis)” value in data set [1] (Liver) was 1. Moreover, the “Hepatotoxicity (steatosis)” value in data set [2] turned out to be 0. The “Hepatotoxicity (malignant tumour)” value in [3] is 0. The entries for the “Hepatotoxicity (acute)” value in [4] (Liver) and in data set [5] were 0% and 6, respectively. In addition, the “Hepatotoxicity (cytolytic)” value in data set [6] was 6. In [7], the “Hepatotoxicity (time to onset)” value was found to be 5 days - 4 weeks. The “Hepatotoxicity (association with vascular disease)” value in [8] is 0. The “Hepatotoxicity (cirrhosis)” value in [9] is 0. In addition, the “Hepatotoxicity (choleostasis)” value in data set [10] is given as 1. Also, the “Hepatotoxicity (moderate)” value in data set [11] is listed as 4; in data set [13] (Liver) it was 2.3%. The “Hepatotoxicity (benign tumour)” value in data set [12] came out at 0. Also, in [14], the “Hepatotoxicity (chronic liver disease)” value stood at 0. The “Hepatotoxicity (granulomatous hepatitis)” value in [15] was determined as 0.

As to `CCCC(C)(COC(N)=O)COC(=O)NC(C)C` (stereo not given) [CARISOPRODOL], the “Hepatotoxicity (severe hepatitis)” value in [1] is listed as 0. Moreover, in data set [2], the “Hepatotoxicity (steatosis)” value came to 0. Besides, the “Hepatotoxicity (malignant tumour)” value in data set [3] was 0. Besides, the “Hepatotoxicity (acute)” value in data set [4] is reported as 0%; in [5], 1. In addition, the “Hepatotoxicity (cytolytic)” value in [6] stood at 1. In addition, the “Hepatotoxicity (time to onset)” value in data set [7] came out at 2 weeks. In addition, the “Hepatotoxicity (association with vascular disease)” value in data set [8] was determined as 0. In addition, the “Hepatotoxicity (cirrhosis)” value in data set [9] is recorded as 0. Also, the “Hepatotoxicity (choleostasis)” value in data set [10] came out at 0. The “Hepatotoxicity (moderate)” value in data set [11] is listed as 0; in data set [13], 0%. Further, in [12], the “Hepatotoxicity (benign tumour)” value was 0. The “Hepatotoxicity (chronic liver disease)” value in [14] is reported as 0. Also, the “Hepatotoxicity (granulomatous hepatitis)” value in data set [15] stood at 0.

Consider `O=C(NCCN1CCN(c2cccc3c2OC[C@H](CO)O3)CC1)c1ccc(F)cc1` [FLESINOXAN], for which the “Hepatotoxicity (severe hepatitis)” value in [1] stood at 0. Further, the “Hepatotoxicity (steatosis)” value in [2] is on record as 0. For the same compound, in data set [3], the “Hepatotoxicity (malignant tumour)” value stood at 0. Moreover, the “Hepatotoxicity (acute)” value in data set [4] was 0%; in data set [5], 0. Besides, the “Hepatotoxicity (cytolytic)” value in [6] was 0. The “Hepatotoxicity (time to onset)” value in data set [7] is recorded as 6 weeks. The “Hepatotoxicity (association with vascular disease)” value in [8] is 0. Further, the “Hepatotoxicity (cirrhosis)” value in data set [9] turned out to be 0. Moreover, the “Hepatotoxicity (choleostasis)” value in data set [10] turned out to be 0. For the same compound, the “Hepatotoxicity (moderate)” value was 1 in [11] and 12.5% in data set [13]. The “Hepatotoxicity (benign tumour)” value in data set [12] turned out to be 0. In addition, in data set [14], the “Hepatotoxicity (chronic liver disease)” value is 0. In addition, the “Hepatotoxicity (granulomatous hepatitis)” value in data set [15] turned out to be 0.

`CC(=O)OCC(=O)NCCCOc1cccc(CN2CCCCC2)c1` [ROXATIDINE ACETATE]: the “Hepatotoxicity (severe hepatitis)” value in [1] came out at 0. For the same compound, the “Hepatotoxicity (steatosis)” value in data set [2] stood at 0. Also, the “Hepatotoxicity (malignant tumour)” value in data set [3] was found to be 0. The “Hepatotoxicity (acute)” value was determined as 0.5% in [4] and 1 in data set [5]. For the same compound, in data set [6], the “Hepatotoxicity (cytolytic)” value is listed as 0. Besides, the “Hepatotoxicity (time to onset)” value in data set [7] is recorded as 4 weeks. In data set [8], the “Hepatotoxicity (association with vascular disease)” value worked out at 0. For the same compound, in [9], the “Hepatotoxicity (cirrhosis)” value came to 0. The “Hepatotoxicity (choleostasis)” value in data set [10] was found to be 0. The “Hepatotoxicity (moderate)” value in [11] is 2; in data set [13] it was 0.4%. For the same compound, the “Hepatotoxicity (benign tumour)” value in [12] is on record as 0. Further, the “Hepatotoxicity (chronic liver disease)” value in data set [14] is recorded as 0. In addition, in data set [15], the “Hepatotoxicity (granulomatous hepatitis)” value worked out at 0.

Regarding `[H]/N=C(/N)N/C(=N/[H])NCCc1ccccc1` [PHENFORMIN], the “Hepatotoxicity (severe hepatitis)” value in [1] is on record as 0. Moreover, in data set [2], the “Hepatotoxicity (steatosis)” value is on record as 0. In addition, the “Hepatotoxicity (malignant tumour)” value in data set [3] came to 0. The “Hepatotoxicity (acute)” value came out at 0% in [4] and 1 in data set [5]. Besides, in [6], the “Hepatotoxicity (cytolytic)” value worked out at 0. Further, the “Hepatotoxicity (time to onset)” value in data set [7] was found to be 1 week. In addition, in data set [8], the “Hepatotoxicity (association with vascular disease)” value stood at 0. Further, the “Hepatotoxicity (cirrhosis)” value in [9] was 0. Moreover, in data set [10], the “Hepatotoxicity (choleostasis)” value is listed as 0. Besides, the figures for the “Hepatotoxicity (moderate)” value in [11] and in data set [13] were 0 and 0%, respectively. Further, the “Hepatotoxicity (benign tumour)” value in data set [12] is given as 0. For the same compound, in data set [14], the “Hepatotoxicity (chronic liver disease)” value is recorded as 0. Moreover, the “Hepatotoxicity (granulomatous hepatitis)” value in data set [15] was 0.

`CC1(C)O[C@@H]2[C@@H](CO[C@@]3(COS(N)(=O)=O)OC(C)(C)O[C@@H]23)O1` [TOPIRAMATE]: the “Hepatotoxicity (severe hepatitis)” value in data set [1] is recorded as 1. Further, the “Hepatotoxicity (steatosis)” value in data set [2] worked out at 0. For the same compound, the “Hepatotoxicity (malignant tumour)” value in data set [3] came out at 0. In addition, the “Hepatotoxicity (acute)” value worked out at 0% in [4] and 2 in [5]. Besides, the “Hepatotoxicity (cytolytic)” value in data set [6] was determined as 2. The “Hepatotoxicity (time to onset)” value in data set [7] came out at 2 months - 4 months. Moreover, in [8], the “Hepatotoxicity (association with vascular disease)” value amounted to 0. For the same compound, the “Hepatotoxicity (cirrhosis)” value in data set [9] was 0. Besides, in data set [10], the “Hepatotoxicity (choleostasis)” value amounted to 0. Further, the “Hepatotoxicity (moderate)” value is reported as 1 in data set [11] and 23% in [13]. For the same compound, in data set [12], the “Hepatotoxicity (benign tumour)” value came to 0. In [14], the “Hepatotoxicity (chronic liver disease)” value was determined as 0. For the same compound, the “Hepatotoxicity (granulomatous hepatitis)” value in data set [15] came to 0.

With `OCCN1CCN(CCCN2c3ccccc3Sc3ccc(Cl)cc32)CC1` [PERPHENAZINE], the “Hepatotoxicity (severe hepatitis)” value in [1] was 0. Also, in data set [2], the “Hepatotoxicity (steatosis)” value is given as 0. For the same compound, in data set [3], the “Hepatotoxicity (malignant tumour)” value is listed as 0. Moreover, the entries for the “Hepatotoxicity (acute)” value in data set [4] and in data set [5] were 0.3% and 5, respectively. Besides, the “Hepatotoxicity (cytolytic)” value in data set [6] is 1. Also, the “Hepatotoxicity (time to onset)” value in [7] is on record as 2 months. The “Hepatotoxicity (association with vascular disease)” value in [8] turned out to be 0. For the same compound, in [9], the “Hepatotoxicity (cirrhosis)” value is on record as 0. The “Hepatotoxicity (choleostasis)” value in data set [10] is 4. The figures for the “Hepatotoxicity (moderate)” value in [11] and in data set [13] were 2 and 23.4%, respectively. For the same compound, the “Hepatotoxicity (benign tumour)” value in data set [12] stood at 0. Also, the “Hepatotoxicity (chronic liver disease)” value in data set [14] came out at 0. For the same compound, the “Hepatotoxicity (granulomatous hepatitis)” value in data set [15] was determined as 0.
